Experimental data reported in article PMC12736120, “First-in-Human Phase I Clinical Trial of SLC-391, a Novel and Selective AXL Inhibitor, in Patients with Advanced Solid Tumours” (Pharmaceuticals, 2025).

Test: Phase I safety and tolerability (DLTs, adverse events, laboratory, ECG)
Type: in vivo
Description: This study employed a standard 3 + 3 dose escalation design with a starting dose of 25 mg QD. […] Dose escalation decisions took into account all available data from evaluable subjects as well as PK and the safety profile of prior dose cohorts. […] There was a minimum 5-day stagger between dosing of the first and second subjects in each dose cohort. Dose escalation decisions were made by a data review committee (DRC) composed of, at minimum, the medical monitor, at least one principal investigator, and a sponsor representative, per the study DRC Plan. Dose escalation could continue until 2 or more subjects in the same dose cohort experienced a dose-limiting toxicity (DLT). DLTs were defined as Grade 3 or 4 adverse drug reactions (ADRs), with grades as defined in the National Cancer Institute Common Toxicity Criteria for Adverse Events (NCI-CTCAE) version 5.0. […] The MTD was defined as the highest dose at which no more than 1 of 6 subjects experienced a DLT during cycle 1 of the study drug. The MTD would have been exceeded if 2 or more subjects in a dose cohort of up to 6 subjects experienced a DLT. Subjects could continue treatment until disease progression, unacceptable toxicity, death, withdrawal of consent, or loss to follow-up.
Before enrolment in the study, all patients received a detailed medical history and physical examination. Clinical laboratory evaluations included clinical chemistry, complete blood count, urinalysis, coagulation factors, and a lipid panel. Other safety assessments included vital signs, physical examination, electrocardiogram, and echocardiogram with multigated acquisition (ECHO/MUGA). Safety assessments were performed on days 1, 8, 15, and 21 of cycle 1, and on day 1 of cycles 2 to 6.

[1] = Grade All, Overall Study (N = 35)
[2] = Possibly related, Overall BID (N = 15)
[3] = Possibly related, Overall QD (N = 20)
[4] = Possibly related, Overall Study (N = 35)
[5] = Probably related, Overall BID (N = 15)
[6] = Probably related, Overall QD (N = 20)
[7] = Probably related, Overall Study (N = 35)
[8] = Relatedness All, Overall BID (N = 15)
[9] = Relatedness All, Overall QD (N = 20)
[10] = Relatedness All, Overall Study (N = 35)

With `Nc1ncc(-c2cnn(C3CCNCC3)c2)cc1-c1nnc(CC2CC2)o1` [SLC-391, 3-(5-[cyclopropylmethyl]-1,3,4-oxadiazol-2-yl)-5-(1-[piperidin-4-yl]-1H-pyrazol-4-yl)-pyridin-2-amine] the “TEAE: Musculoskeletal and connective tissue disorders” value [1] was 14 (40.0) n (%), the “TEAE: Nausea” value [1] was 24 (68.6) n (%) and the “TEAE: Nervous system disorders” value [1] was 15 (42.9) n (%). For the same compound, the “TEAE: Oedema peripheral” value [1] was 4 (11.4) n (%), the “TEAE: Psychiatric disorders” value [1] was 5 (14.3) n (%) and the “TEAE: Pyrexia” value [1] was 5 (14.3) n (%). For the same compound, the “TEAE: Renal and urinary disorders” value [1] was 6 (17.1) n (%), the “TEAE: Respiratory, thoracic, and mediastinal disorders” value [1] was 19 (54.3) n (%) and the “TEAE: Skin and subcutaneous tissue disorders” value [1] was 10 (28.6) n (%). For the same compound, the “TEAE: Urinary tract infection” value [1] was 4 (11.4) n (%), the “TEAE: Vascular disorders” value [1] was 5 (14.3) n (%) and the “TEAE: Vomiting” value [1] was 17 (48.6) n (%). The “TEAE: Weight decreased” value [1] was 6 (17.1) n (%), the “Any treatment-related adverse event (TRAE)” value [2] was 7 (46.7%) n (%) and the “TRAE: Decreased appetite” value [2] was 1 (6.7%) n (%). The “TRAE: Diarrhoea” value [2] was 4 (26.7%) n (%), the “TRAE: Dysgeusia” value [2] was 1 (6.7%) n (%) and the “TRAE: Fatigue” value [2] was 3 (20.0%) n (%). The “TRAE: Gastrointestinal disorders” value [2] was 5 (33.3%) n (%), the “TRAE: General disorders and administration site conditions” value [2] was 3 (20.0%) n (%) and the “TRAE: Metabolism and nutrition disorders” value [2] was 1 (6.7%) n (%). For the same compound, the “TRAE: Nausea” value [2] was 4 (26.7%) n (%), the “TRAE: Nervous system disorders” value [2] was 1 (6.7%) n (%) and the “TRAE: Skin and subcutaneous tissue disorders” value [2] was 2 (13.3%) n (%). The “TRAE: Vomiting” value [2] was 1 (6.7%) n (%), the “Any treatment-related adverse event (TRAE)” value [3] was 8 (40.0%) n (%) and the “TRAE: Decreased appetite” value [3] was 3 (15.0%) n (%). For the same compound, the “TRAE: Diarrhoea” value [3] was 5 (25.0%) n (%), the “TRAE: Dysgeusia” value [3] was 0 n (%) and the “TRAE: Fatigue” value [3] was 2 (10.0%) n (%). For the same compound, the “TRAE: Gastrointestinal disorders” value [3] was 8 (40.0%) n (%), the “TRAE: General disorders and administration site conditions” value [3] was 3 (15.0%) n (%) and the “TRAE: Metabolism and nutrition disorders” value [3] was 4 (20.0%) n (%). For the same compound, the “TRAE: Nausea” value [3] was 5 (25.0%) n (%), the “TRAE: Nervous system disorders” value [3] was 1 (5.0%) n (%) and the “TRAE: Skin and subcutaneous tissue disorders” value [3] was 4 (20.0%) n (%). The “TRAE: Vomiting” value [3] was 3 (15.0%) n (%), the “Any treatment-related adverse event (TRAE)” value [4] was 15 (42.9%) n (%) and the “TRAE: Decreased appetite” value [4] was 4 (11.4%) n (%). For the same compound, the “TRAE: Diarrhoea” value [4] was 9 (25.7%) n (%), the “TRAE: Dysgeusia” value [4] was 1 (2.9%) n (%) and the “TRAE: Fatigue” value [4] was 5 (14.3%) n (%). For the same compound, the “TRAE: Gastrointestinal disorders” value [4] was 13 (37.1%) n (%), the “TRAE: General disorders and administration site conditions” value [4] was 6 (17.1%) n (%) and the “TRAE: Metabolism and nutrition disorders” value [4] was 5 (14.3%) n (%). For the same compound, the “TRAE: Nausea” value [4] was 9 (25.7%) n (%), the “TRAE: Nervous system disorders” value [4] was 2 (5.7%) n (%) and the “TRAE: Skin and subcutaneous tissue disorders” value [4] was 6 (17.1%) n (%). For the same compound, the “TRAE: Vomiting” value [4] was 4 (11.4%) n (%), the “Any treatment-related adverse event (TRAE)” value [5] was 1 (6.7%) n (%) and the “TRAE: Diarrhoea” value [5] was 1 (6.7%) n (%). For the same compound, the “TRAE: Dysgeusia” value [5] was 0 n (%), the “TRAE: Gastrointestinal disorders” value [5] was 1 (6.7%) n (%) and the “TRAE: Nausea” value [5] was 0 n (%). For the same compound, the “TRAE: Nervous system disorders” value [5] was 0 n (%), the “TRAE: Skin and subcutaneous tissue disorders” value [5] was 0 n (%) and the “TRAE: Vomiting” value [5] was 0 n (%). For the same compound, the “Any treatment-related adverse event (TRAE)” value [6] was 3 (15.0%) n (%), the “TRAE: Diarrhoea” value [6] was 0 n (%) and the “TRAE: Dysgeusia” value [6] was 1 (5.0%) n (%). The “TRAE: Gastrointestinal disorders” value [6] was 2 (10.0%) n (%), the “TRAE: Nausea” value [6] was 2 (10.0%) n (%) and the “TRAE: Nervous system disorders” value [6] was 2 (10.0%) n (%). The “TRAE: Skin and subcutaneous tissue disorders” value [6] was 2 (10.0%) n (%), the “TRAE: Vomiting” value [6] was 1 (5.0%) n (%) and the “Any treatment-related adverse event (TRAE)” value [7] was 4 (11.4%) n (%). The “TRAE: Diarrhoea” value [7] was 1 (2.9%) n (%), the “TRAE: Dysgeusia” value [7] was 1 (2.9%) n (%) and the “TRAE: Gastrointestinal disorders” value [7] was 3 (8.6%) n (%). For the same compound, the “TRAE: Nausea” value [7] was 2 (5.7%) n (%), the “TRAE: Nervous system disorders” value [7] was 2 (5.7%) n (%) and the “TRAE: Skin and subcutaneous tissue disorders” value [7] was 2 (5.7%) n (%). For the same compound, the “TRAE: Vomiting” value [7] was 1 (2.9%) n (%), the “SAEs, subjects” value (QD cohorts) was 20.0% and the “TEAEs leading to treatment interruption or missed dose” value (QD cohorts) was 20.0%. For the same compound, the “TEAEs leading to treatment or study discontinuation, subjects” value (QD cohorts) was 20.0%, the “subjects with Grade 3 TEAEs” value (QD cohorts) was 30.0% and the “subjects with TRAEs” value (QD cohorts) was 90.0%. For the same compound, the “subjects with at least one TEAE” value (QD cohorts) was 95.0%, the “Any treatment-related adverse event (TRAE)” value [8] was 13 (86.7%) n (%) and the “TRAE: Decreased appetite” value [8] was 3 (20.0%) n (%). For the same compound, the “TRAE: Diarrhoea” value [8] was 7 (46.7%) n (%), the “TRAE: Dysgeusia” value [8] was 2 (13.3%) n (%) and the “TRAE: Fatigue” value [8] was 4 (26.7%) n (%). For the same compound, the “TRAE: Gastrointestinal disorders” value [8] was 11 (73.3%) n (%), the “TRAE: General disorders and administration site conditions” value [8] was 4 (26.7%) n (%) and the “TRAE: Metabolism and nutrition disorders” value [8] was 3 (20.0%) n (%). The “TRAE: Nausea” value [8] was 8 (53.3%) n (%), the “TRAE: Nervous system disorders” value [8] was 2 (13.3%) n (%) and the “TRAE: Skin and subcutaneous tissue disorders” value [8] was 2 (13.3%) n (%). For the same compound, the “TRAE: Vomiting” value [8] was 4 (26.7%) n (%), the “Any treatment-related adverse event (TRAE)” value [9] was 18 (90.0%) n (%) and the “TRAE: Decreased appetite” value [9] was 5 (25.0%) n (%). The “TRAE: Diarrhoea” value [9] was 10 (50.0%) n (%), the “TRAE: Dysgeusia” value [9] was 2 (10.0%) n (%) and the “TRAE: Fatigue” value [9] was 5 (25.0%) n (%). The “TRAE: Gastrointestinal disorders” value [9] was 16 (80.0%) n (%), the “TRAE: General disorders and administration site conditions” value [9] was 6 (30.0%) n (%) and the “TRAE: Metabolism and nutrition disorders” value [9] was 6 (30.0%) n (%). The “TRAE: Nausea” value [9] was 11 (55.0%) n (%), the “TRAE: Nervous system disorders” value [9] was 4 (20.0%) n (%) and the “TRAE: Skin and subcutaneous tissue disorders” value [9] was 6 (30.0%) n (%). For the same compound, the “TRAE: Vomiting” value [9] was 9 (45.0%) n (%), the “Any treatment-related adverse event (TRAE)” value [10] was 31 (88.6%) n (%) and the “TRAE: Decreased appetite” value [10] was 8 (22.9%) n (%). For the same compound, the “TRAE: Diarrhoea” value [10] was 17 (48.6%) n (%), the “TRAE: Dysgeusia” value [10] was 4 (11.4%) n (%) and the “TRAE: Fatigue” value [10] was 9 (25.7%) n (%). The “TRAE: Gastrointestinal disorders” value [10] was 27 (77.1%) n (%), the “TRAE: General disorders and administration site conditions” value [10] was 10 (28.6%) n (%) and the “TRAE: Metabolism and nutrition disorders” value [10] was 9 (25.7%) n (%). The “TRAE: Nausea” value [10] was 19 (54.3%) n (%), the “TRAE: Nervous system disorders” value [10] was 6 (17.1%) n (%) and the “TRAE: Skin and subcutaneous tissue disorders” value [10] was 8 (22.9%) n (%). For the same compound, the “TRAE: Vomiting” value [10] was 13 (37.1%) n (%), the deaths (after study drug discontinuation due to progressive disease) was “Two deaths” and the “heme toxicity, ECG, neutrophil count, QT interval/QTcF” value (all subjects) was “no reports of heme toxicity or clinically significant abnormal ECG and neutrophil count changes, including QT interval or QTcF prolongation”. The “TEAEs leading to drug withdrawal or study discontinuation, subjects” value (all subjects (7/35)) was 20.0%, the “subjects with at least one TEAE” value (all subjects (34/35)) was 97.1% and the “subjects with Grade 3 TRAEs considered related to SLC-391” value (all subjects (N = 35)) was 8.6%. For the same compound, the “subjects with a maximum of Grade 1 TEAEs” value (all subjects (N = 35)) was 8.6%, the “subjects with a maximum of Grade 2 TEAEs” value (all subjects (N = 35)) was 54.3% and the “subjects with a maximum of Grade 3 TEAEs” value (all subjects (N = 35)) was 34.3%. The “subjects with dosing interrupted due to TEAEs” value (all subjects (N = 35)) was 25.7%, the “subjects with one or more TRAE” value (all subjects (N = 35)) was 88.6% and the “subjects with SAEs” value (all subjects (N = 35), eight SAEs in five subjects) was 14.3%. The “subjects with SAEs leading to dose interruption, drug withdrawal, or study discontinuation” value (all subjects (N = 35), four SAEs in three subjects) was 8.6%, the “dose recommended by the safety review committee for further investigations” value (based on safety profile, PK and in vitro/in vivo efficacy data) was 150 mg BID and the clinical chemistry-related toxicities (hypokalaemia, hypomagnesaemia, hyponatraemia, hypophosphataemia, increased blood creatinine, decreased blood zinc, all unrelated to SLC-391) was “Most clinical chemistry-related toxicities were Grade 1 or 2”.
